Measurements as given in US6528501B1, “22s-hydroxycholesta-8, 14-diene derivatives with meiosis regulating activity” (Akzo Nobel N.V., priority 1998, dated 2003).

Assays:
meiosis = details: disclosed in WO 98/28323; cited from earlier work
[1] = test system: cultured cumulus enclosed and naked mouse oocytes; details: cited from earlier work
denuded oocytes (DO) = test: Oocyte assay, denuded oocytes (DO): overcoming hypoxanthine maintained meiotic arrest; format: cell-based, mice (B6D2-F1, strain C57BL×DBA); details: 22 hours culture, hypoxanthine 4 mM, control value in parentheses
Procedure: (§1) The meiosis activating activity of the […]-hydroxycholesta-8,14-diene derivatives of the invention is measured in an in vitro oocyte assay as the ability to overcome the hypoxanthine maintained meiotic arrest in denuded oocytes (DO) or cumulus enclosed oocytes (CEO). Oocytes arrested in meiosis contain diffused chromosomes which are surrounded by an intact nuclear envelope known as the germinal vesicle (GV). Upon reinitiation of meiosis by the […] gonadotropin surge, the chromosomes recondense and the GV breaks down (GVBD). In vivo, the oocyte is exposed to hypoxanthine (HX), which maintains the oocyte arrested in the meiotic prophase. This meiotic arrest can be mimicked in vitro by addition of hypoxanthine to the culture medium. The agonistic activity of the meiosis activating substances is measured as the ability to overcome the hypoxanthine maintained meiotic arrest in denuded oocytes (DO) or cumulus enclosed oocytes (CEO), i.e. as the ability to induce meiotic resumption in vitro. Ovaries are obtained from immature female mice (B6D2-F1, strain C57BL×DBA). At the age of 19, 20 or 21 days the mice are injected subcutaneously with a single dose of 20 IU follicle stimulating hormone (Humegon, Organon, The Netherlands) in saline. Forty-eight hours after follicle stimulating hormone injection mice are killed by cervical dislocation. The ovaries are removed, freed of extraneous tissue and placed in a multidish containing 0.5 ml preparation medium at 37° C. […] At t=0 the number of oocytes with intact germinal vesicles (GV) or germinal vesicle break-down (GVBD) is counted under an inverted microscope with differential interference contrast equipment. […] At the end of the culture period the number of oocytes with GV or GVBD per group is counted. For statistical analysis the percentage germinal vesicle breakdown is calculated for each group in one block. These percentages are subjected to arcsin transformation, and differences between control and test compounds are analyzed by an ANOVA test for a randomized block design.

[2] = test system: cumulus enclosed oocytes (CEO); test: Oocyte assay, cumulus enclosed oocytes (CEO): overcoming hypoxanthine maintained meiotic arrest; format: cell-based, mice (B6D2-F1, strain C57BL×DBA); details: 22 hours culture, hypoxanthine 4 mM, control value in parentheses
Procedure: as §1

| SMILES | ability to activate the resumption of meiosis [1] | % GVBD DO assay exp. (denuded oocytes (DO); 5 μM) | % GVBD CEO assay exp. ([2]; 5 μM) | melting point [°C] | further results |
| --- | --- | --- | --- | --- | --- |
| CC(C)CC[C@@H](O)[C@@H](C)[C@H]1CC[C@H]2[C@@H]3CC=C4C[C@@H](O)CC[C@]4(C)[C@H]3CC[C@]12C [22R-hydroxycholesterol] |  |  |  |  | agonist/antagonist of meiosis activating substance (meiosis): antagonist |
| CC(C)=CCC[C@@H](C)[C@H]1CC[C@H]2C3=C(CC[C@]12C)[C@@]1(C)CC[C@H](O)C(C)(C)[C@@H]1CC3 [(3β,5α,20R)-4,4-dimethylcholesta-8,24-dien-3-ol] | able to activate the resumption of meiosis |  |  |  |  |
| CC(C)CC[C@H](O)[C@@H](C)[C@H]1CC=C2C3=C(CC[C@@]21C)[C@@]1(C)CC[C@H](O)C(C)(C)[C@@H]1CC3 [Example 1, (3β,5α,20S ,22S)-4,4-Dimethylcholesta-8,14-diene-3,22-diol] |  | 85(0) % | 6(3) % | 142 to 143 |  |
| CC(C)=CC[C@H](O)[C@@H](C)[C@H]1CC=C2C3=C(CC[C@@]21C)[C@@]1(C)CC[C@H](O)C(C)(C)[C@@H]1CC3 [Example 2, (3β,5α,20S,22S )-4,4-Dimethylcholesta-8,14,24-triene-3,22-diol] |  | 97(2) % | 73(2) % | 106 to 108 |  |
| CC(C)=CCC[C@@H](C)[C@H]1CC=C2C3=C(CC[C@@]21C)[C@@]1(C)CC[C@H](O)C(C)(C)[C@@H]1CC3 [FF-Mas, (3β,5α,20R)-4,4-dimethylcholesta-8,14,24-trien-3-ol] | able to activate the resumption of meiosis |  |  |  | % GVBD DO assay exp. (denuded oocytes (DO); 10 μM): 84(7) %; % GVBD CEO assay exp. ([2]; 10 μM): 0(0) % |
